Blank lines part the entries; values can stand above or below the compound they belong to.
Columns and labels:
[1] = target: T1, G-protein coupled receptor 84 (Homo sapiens, UniProt Q9NQS5); experiment: (§1) Antagonist activity at recombinant human N-terminal epitope tagged/eYFP-fused FLAG-tagged GPR84 expressed in Flp-In TREx 293 cells assessed as inhibition of DIM-induced [35S]GTPgammaS binding pre-incubated for 15 mins followed by [35S]GTPgammaS addition and measured after 45 mins by liquid scintillation spectrometry; assay type: functional, cell-based, Flp-In-T-REx-293
T1 sequence (Q9NQS5 whole entry, the tested form may be a part): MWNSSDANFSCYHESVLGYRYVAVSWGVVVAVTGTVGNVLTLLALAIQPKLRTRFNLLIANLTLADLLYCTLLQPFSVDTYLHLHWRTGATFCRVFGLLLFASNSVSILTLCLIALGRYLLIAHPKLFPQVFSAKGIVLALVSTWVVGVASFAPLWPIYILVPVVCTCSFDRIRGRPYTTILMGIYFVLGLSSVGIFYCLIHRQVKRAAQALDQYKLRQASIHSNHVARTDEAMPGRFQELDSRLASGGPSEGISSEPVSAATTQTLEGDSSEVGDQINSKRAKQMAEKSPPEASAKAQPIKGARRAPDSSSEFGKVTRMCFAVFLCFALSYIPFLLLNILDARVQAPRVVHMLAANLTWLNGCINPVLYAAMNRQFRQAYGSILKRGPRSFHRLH

[2] = target: T1, G-protein coupled receptor 84; experiment: as §1, with “decanoic acid-induced” for “DIM-induced”; assay type: functional, cell-based, Flp-In-T-REx-293
[3] = target: T1, G-protein coupled receptor 84; experiment: as §1, with “embelin-induced” for “DIM-induced”; assay type: functional, cell-based, Flp-In-T-REx-293
[4] = target: T1, G-protein coupled receptor 84; experiment: (§2) Antagonist activity at GPR84 in LPS-treated human THP-1 cell membrane assessed as reduction in PSB-16671-induced stimulation of [35S]GTPgammaS binding preincubated for 15 mins followed by PSB-16671 addition and subsequent addition of [35S]GTPgammaS measured after 60 mins by liquid scintillation spectroscopy; assay type: functional
[5] = target: T2, G-protein coupled receptor 84 (Mus musculus, UniProt Q8CIM5); experiment: (§3) Antagonist activity at mouse Galphai2-coupled GPR84 expressed in human Flp-In-T-REx-293 cell membrane assessed as reduction in PSB-16671-induced stimulation of [35S]GTPgammaS binding preincubated for 15 mins followed by PSB-16671 addition and subsequent addition of [35S]GTPgammaS measured after 60 mins by liquid scintillation spectroscopy; assay type: functional, cell membranes
T2 sequence (Q8CIM5 whole entry): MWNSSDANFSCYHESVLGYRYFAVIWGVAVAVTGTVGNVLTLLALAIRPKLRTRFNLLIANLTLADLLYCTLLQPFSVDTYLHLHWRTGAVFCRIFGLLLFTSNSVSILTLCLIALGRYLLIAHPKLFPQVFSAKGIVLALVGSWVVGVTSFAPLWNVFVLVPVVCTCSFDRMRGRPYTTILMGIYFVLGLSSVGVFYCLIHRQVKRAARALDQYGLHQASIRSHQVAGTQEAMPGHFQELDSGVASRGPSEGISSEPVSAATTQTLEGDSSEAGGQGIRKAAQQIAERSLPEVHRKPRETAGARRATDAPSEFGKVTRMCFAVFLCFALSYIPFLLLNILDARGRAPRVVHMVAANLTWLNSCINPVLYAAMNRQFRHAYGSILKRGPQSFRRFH

[6] = target: T2, G-protein coupled receptor 84; experiment: as §2, with “mouse RAW 264.7” for “human THP-1”; assay type: functional, cell membranes, RAW264.7
[7] = target: T1, G-protein coupled receptor 84; experiment: Antagonist activity at GPR84 in LPS-treated human THP-1 cell membrane assessed as reduction in ZQ-16-induced stimulation of [35S]GTPgammaS binding preincubated for 15 mins followed by ZQ-16 addition and subsequent addition of [35S]GTPgammaS measured after 60 mins by liquid scintillation spectroscopy; assay type: functional
[8] = target: T1, G-protein coupled receptor 84; experiment: as §3, with “human Flag-tagged Gialpha-coupled” for “mouse Galphai2-coupled”; assay type: functional, cell membranes
[9] = target: T1, G-protein coupled receptor 84; experiment: Agonist activity at human Gialpha-coupled GPR84 expressed in baculovirus infected sf9 insect cells assessed as induction of [35S]GTPgammaS incubated for 1 hr by liquid scintillation counting method; assay type: functional
[10] = target: T1, G-protein coupled receptor 84; experiment: Antagonist activity at human GPR84 expressed in CHO-K1 cells assessed as reduction in 6-OAU-induced inhibition of forskolin stimulated cAMP production preincubated for 15 mins followed by forskolin and 6-OAU stimulation and measured after 30 mins by luminescence method; assay type: functional, cell-based
[11] = target: T2, G-protein coupled receptor 84; experiment: Agonist activity at GPR84 in mouse bone-marrow-derived neutrophils assessed as stimulation of [35S]GTPgammaS binding incubated for 60 mins by liquid scintillation spectroscopy; assay type: functional, tissue-based, Neutrophil
[12] = target: T1, G-protein coupled receptor 84; experiment: Agonist activity at human GPR84 expressed in CHO cell membranes assessed as induction of [35S]GTPgammaS incorporation incubated for 1 hr by liquid scintillation counting method; assay type: functional, Cell membrane
[13] = target: T1, G-protein coupled receptor 84; experiment: Agonist activity at human GPR84 expressed in CHO cells assessed as reduction in forskolin-stimulated cAMP production preincubated for 20 mins followed by forskolin stimulation and measured after 20 mins by cAMP assay; assay type: functional, cell-based

- IC50 [1]: 86 nM
- IC50 [2]: 28 nM
- IC50 [3]: 14 nM
Compound: O=c1nc(OC[C@H]2COCCO2)cc2n1CCc1cc(OCc3noc(C4CC4)n3)ccc1-2

- IC50 [4]: 4.8 nM
- IC50 [5]: 68 nM
- IC50 [1]: 21 nM
- IC50 [2]: 25 nM
- IC50 [6]: 145 nM
- IC50 [7]: 14 nM
- IC50 [3]: 22 nM
- IC50 [8]: 0.9 nM
Compound: O=c1nc(OCC2COCCO2)cc2n1CCc1cc(C#CCNc3ccccc3)ccc1-2 (stereo not given)

- EC50 [9]: 13000 nM
Compound: CCCCCCCCCC(O)CC(=O)O (stereo not given)

- IC50 [10]: 260 nM
Compound: O=c1nc(OCC2COCCO2)cc2n1CCc1cc(OCc3ccccn3)ccc1-2 (stereo not given)

Second part, the compound before the results:

Compound: O=c1nc(OC[C@@H]2COCCO2)cc2n1CCc1cc(COCC3CCOCC3)ccc1-2
- IC50 [1]: 55 nM
- IC50 [2]: 168 nM
- IC50 [3]: 83 nM

Compound: CCCCCCSc1nc(O)cc(O)n1
- EC50 [11]: 12.9 nM

Compound: CCCCCCCCC(=O)O [NONANOATE]
- EC50 [12]: 70200 nM
- EC50 [13]: 52300 nM

Compound: Fc1cc(F)c2[nH]cc(Cc3c[nH]c4c(F)cc(F)cc34)c2c1
- EC50 [11]: 2880 nM
